From patent US8884013B2, “Polymorphs of Dasatinib, preparation methods and pharmaceutical compositions thereof” (Nan Jing Cavendish Bio-Engineering Technology Co., Ltd., priority 2010, dated 2014)

Legend:
[1] = High temperature test (60° C.); format: physicochemical; conditions: for Change of appearance in high temperature test (in words) / Change of content in high temperature test (in words): summary of 10-day test
Description: The conditions and methods of related substance test involved in this invention was in accordance with HPLC (Appendix VD of Chinese Pharmacopoeia, Vol. II, (2005)).
Chromatographic conditions and system applicability:
octadecylsilane bonded silica as the filler; 0.05 mol/L of potassium dihydrogen phosphate (adjusted to pH 2.5 by phosphoric acid)-methanol (45:55) as the mobile phase; detection wavelength was 230 nm; the number of theoretical plates should be not less than 2000, calculated according to the peak area of Dasatinib. The resolution of the peak of Dasatinib from the peaks of adjacent impurities should meet requirements.
Test Method: the sample was weight and dissolved into mobile phase to be the solution containing 0.5 mg per mL, and 20 μL of this solution was taken and injected into liquid chromatography. Chromatogram was recorded until it is 6 times as the retention time of the main peak.
2.2 High Temperature Test
The raw material of Polymorph I of Dasatinib monohydrate was put into a clean sealed glass bottle and then put in thermostatic drying chamber at 60° C. Sample was tested at the 5th and 10th day respectively and the results were contrasted with that of the Day 0. Results were listed in Tab. 3.
The raw material of Polymorph II of Dasatinib was put into a clean sealed glass bottle and then put in thermostatic drying chamber at 60° C. Sample was tested at the 5th and 10th day respectively and the results were contrasted with that of the Day 0. Results were listed in Tab. 8.

[2] = Comparative test on stability: destruction experiment, related substances by HPLC; format: physicochemical
Description: The methods of destruction experiment of the Polymorph I and II of this invention (hereinafter referred to as ‘Polymorph I’ and ‘Polymorph II’) contrasting with the Polymorph A of Dasatinib prepared by the method in CN200580011916.6 (hereinafter referred to as ‘916.6 Polymorph A’) and results of stability are followed:
Oxidation destruction: 50 mg of sample weighted accurately was added into measuring flask of 100 mL, and 10 mL 30% H2O2 was added. After standing at room temperature for 2 hour, the mixture was diluted with mobile phase to scale and shook to be homogeneous, and determined by HPLC.
Acid destruction: 50 mg of sample weighted accurately was added into measuring flask of 100 mL, and 10 mL 1 mol/L HCl solution was added. After standing at 40° C. for 1 hour, an equal amount of 1 mol/L NaOH solution was added for neutralization. Then the mixture was diluted with mobile phase to scale and shook to be homogeneous, and determined by HPLC.
Alkali destruction: 50 mg of sample weighted accurately was added into measuring flask of 100 mL, and 10 mL 1 mol/L NaOH solution was added. After standing at 40° C. for 1 hour, an equal amount of 1 mol/L HCl solution was added for neutralization. Then the mixture was diluted with mobile phase to scale and shook to be homogeneous, and determined by HPLC.
Illumination destruction: 50 mg of sample weighted accurately was added into measuring flask of 100 mL, dissolved and diluted with mobile phase to be the solution containing 0.5 mg Dasatinib per milliliter. After standing under illumination of 4000 lx for 6 hour, the mixture was determined by HPLC.
High temperature destruction: 50 mg of sample weighted accurately was added into measuring flask of 100 mL, dissolved and diluted with mobile phase to be the solution containing 0.5 mg Dasatinib per milliliter. After standing in homothermal water bath of 60° C. for 4 hour, the mixture was cooled and then determined by HPLC.
Related Substances Determination
HPLC conditions and system applicability: octadecylsilane bonded silica as the filler; 0.05 mol/L of potassium dihydrogen phosphate (adjusted to pH 2.5 by phosphoric acid, 0.2% triethylamine)-methanol (45:55) as the mobile phase; detection wavelength was 230 nm; the number of theoretical plates should be not less than 2000, calculated according to the peak of Dasatinib. The resolution of the peak of Dasatinib from the peaks of adjacent impurities should meet requirements.
Determination method: sample was dissolved in mobile phase to be the solution containing 0.5 mg per milliliter. 20 μL of such solution was injected into liquid chromatograph, and chromatogram was recorded until the sixfold retention time of major component peak. If there were impurities peaks in the chromatogram of sample solution, total impurities and any single impurity were calculated by normalization method on the basis of peak area.

[3] = High humidity test (room temperature, 75 ± 5% relative humidity); format: physicochemical; conditions: for Hydroscopic property: high humidity test; for Appearance / Content / Weight gain of moisture absorption: room temperature, 75 ± 5% relative humidity; for Change of appearance in high humidity test (in words) / Change of content in high humidity test (in words): summary of 10-day test
Description: The raw material of Polymorph I of Dasatinib monohydrate was distributed homogeneously in open petri dish with thickness of the raw material not more than 5 mm and put into thermostatic and humidostatic incubator at room temperature (about 25° C.) and 75±5% relative humidity. Sample was tested at the 5th and 10th day respectively and the results were contrasted with that of the Day 0. Results were listed in Tab. 4.
The raw material of Polymorph II of Dasatinib was distributed homogeneously in open petri dish with thickness of the raw material not more than 5 mm and put into thermostatic and humidostatic incubator at room temperature (about 25° C.) and 75±5% relative humidity. Sample was tested at the 5th and 10th day respectively and the results were contrasted with that of the Day 0. Results were listed in Tab. 9.

[4] = Stability in water compared with polymorph A of CN200580011916.6
[5] = 1 mol/L acid destruction (HCl, 40° C., 1 hour)
[6] = 1 mol/L alkali destruction (NaOH, 40° C., 1 hour)
[7] = high temperature destruction (60° C. water bath, 4 hour, in solution)
[8] = illumination destruction (4000 lx, 6 hour, in solution)
[9] = oxidation destruction (30% H2O2, room temperature, 2 hour)

Cc1nc(Nc2ncc(C(=O)Nc3c(C)cccc3Cl)s2)cc(N2CCN(CCO)CC2)n1 [Polymorph I, N-(2-chloro-6-methylphenyl)-2-[[6-[4-(2-hydroxyethyl)-1-piperazinyl]-2-methyl-4-pyrimidyl]amino]-5-thiazolformamide]
Appearance ([1]; day 0): white powder | Content ([1]; day 0): 99.8% | Related substance ([1]; day 0): 0.06% | Appearance ([1]; day 5): white powder | Content ([1]; day 5): 99.7% | Related substance ([1]; day 5): 0.09% | Appearance ([1]; day 10): white powder | Content ([1]; day 10): 99.5% | Related substance ([1]; day 10): 0.12% | Change of appearance in high temperature test (in words) [1]: few obvious change | Change of content in high temperature test (in words) [1]: went down marginally | Impurity tR4.102 ([2]; 1 mol/L acid destruction): 0.02% | Impurity tR4.987 ([2]; 1 mol/L acid destruction): 0.01% | Impurity tR5.603 ([2]; 1 mol/L acid destruction): 0.02% | Total impurities [2, 5]: 0.06% | Impurity tR4.130 ([2]; 1 mol/L alkali destruction): 0.02% | Impurity tR5.089 ([2]; 1 mol/L alkali destruction): 0.01% | Impurity tR5.501 ([2]; 1 mol/L alkali destruction): 0.02% | Total impurities [2, 6]: 0.08% | Impurity tR4.113 ([2]; before destruction): 0.02% | Impurity tR5.037 ([2]; before destruction): 0.01% | Impurity tR5.535 ([2]; before destruction): 0.03% | Total impurities ([2]; before destruction): 0.07% | Impurity tR3.569 ([2]; high temperature destruction): 0.01% | Impurity tR4.120 ([2]; high temperature destruction): 0.02% | Impurity tR5.088 ([2]; high temperature destruction): 0.01% | Impurity tR5.520 ([2]; high temperature destruction): 0.02% | Total impurities [2, 7]: 0.05% | Impurity tR2.199 ([2]; illumination destruction): 0.04% | Impurity tR2.527 ([2]; illumination destruction): 0.06% | Impurity tR2.911 ([2]; illumination destruction): 0.33% | Impurity tR3.734 ([2]; illumination destruction): 0.11% | Impurity tR4.119 ([2]; illumination destruction): 0.04% | Impurity tR4.585 ([2]; illumination destruction): 0.08% | Impurity tR5.089 ([2]; illumination destruction): 0.03% | Impurity tR5.502 ([2]; illumination destruction): 0.14% | Impurity tR5.996 ([2]; illumination destruction): 0.08% | Impurity tR10.096 ([2]; illumination destruction): 0.66% | Total impurities [2, 8]: 1.28% | Impurity tR3.719 ([2]; oxidation destruction): 0.06% | Impurity tR4.108 ([2]; oxidation destruction): 0.02% | Impurity tR4.568 ([2]; oxidation destruction): 0.04% | Impurity tR5.090 ([2]; oxidation destruction): 0.01% | Impurity tR5.508 ([2]; oxidation destruction): 0.06% | Impurity tR6.467 ([2]; oxidation destruction): 0.05% | Impurity tR9.476 ([2]; oxidation destruction): 1.058% | Total impurities [2, 9]: 1.32% | Hydroscopic property [3]: lower | Appearance ([3]; day 0): white powder | Content ([3]; day 0): 99.7% | Weight gain of moisture absorption ([3]; day 0): 3.57% | Appearance ([3]; day 5): white powder | Content ([3]; day 5): 99.6% | Weight gain of moisture absorption ([3]; day 5): 3.73% | Appearance ([3]; day 10): white powder | Content ([3]; day 10): 99.7% | Weight gain of moisture absorption ([3]; day 10): 3.76% | Change of appearance in high humidity test (in words) [3]: no obvious change | Change of content in high humidity test (in words) [3]: no obvious change | Stability in water by comparison to polymorph A of CN200580011916.6 [4]: better stability in water

Cc1nc(Nc2ncc(C(=O)Nc3c(C)cccc3Cl)s2)cc(N2CCN(CCO)CC2)n1 [Polymorph II, N-(2-chloro-6-methylphenyl)-2-[[6-[4-(2-hydroxyethyl)-1-piperazinyl]-2-methyl-4-pyrimidyl]amino]-5-thiazolformamide]
Content ([1]; day 0): 99.8% | Related substance ([1]; day 0): 0.06% | Content ([1]; day 5): 99.7% | Related substance ([1]; day 5): 0.11% | Content ([1]; day 10): 99.4% | Related substance ([1]; day 10): 0.16% | Change of appearance in high temperature test (in words) [1]: few obvious change | Change of content in high temperature test (in words) [1]: few obvious change | Impurity tR4.101 ([2]; 1 mol/L acid destruction): 0.01% | Impurity tR4.993 ([2]; 1 mol/L acid destruction): 0.01% | Impurity tR5.604 ([2]; 1 mol/L acid destruction): 0.02% | Total impurities [2, 5]: 0.06% | Impurity tR3.580 ([2]; 1 mol/L alkali destruction): 0.01% | Impurity tR4.131 ([2]; 1 mol/L alkali destruction): 0.02% | Impurity tR5.092 ([2]; 1 mol/L alkali destruction): 0.01% | Impurity tR5.512 ([2]; 1 mol/L alkali destruction): 0.02% | Impurity tR9.424 ([2]; 1 mol/L alkali destruction): 0.01% | Total impurities [2, 6]: 0.08% | Impurity tR4.114 ([2]; before destruction): 0.02% | Impurity tR5.049 ([2]; before destruction): 0.01% | Impurity tR5.473 ([2]; before destruction): 0.02% | Total impurities ([2]; before destruction): 0.06% | Impurity tR3.567 ([2]; high temperature destruction): 0.01% | Impurity tR4.117 ([2]; high temperature destruction): 0.01% | Impurity tR5.085 ([2]; high temperature destruction): 0.01% | Impurity tR5.507 ([2]; high temperature destruction): 0.02% | Total impurities [2, 7]: 0.06% | Impurity tR2.197 ([2]; illumination destruction): 0.05% | Impurity tR2.526 ([2]; illumination destruction): 0.05% | Impurity tR2.910 ([2]; illumination destruction): 0.02% | Impurity tR3.733 ([2]; illumination destruction): 0.11% | Impurity tR4.116 ([2]; illumination destruction): 0.04% | Impurity tR4.582 ([2]; illumination destruction): 0.07% | Impurity tR5.084 ([2]; illumination destruction): 0.02% | Impurity tR5.496 ([2]; illumination destruction): 0.15% | Impurity tR5.990 ([2]; illumination destruction): 0.06% | Impurity tR10.084 ([2]; illumination destruction): 0.78% | Total impurities [2, 8]: 1.36% | Impurity tR4.393 ([2]; oxidation destruction): 0.02% | Impurity tR4.567 ([2]; oxidation destruction): 0.03% | Impurity tR5.090 ([2]; oxidation destruction): 0.01% | Impurity tR5.510 ([2]; oxidation destruction): 0.07% | Impurity tR6.468 ([2]; oxidation destruction): 0.04% | Impurity tR9.486 ([2]; oxidation destruction): 1.00% | Total impurities [2, 9]: 1.19% | Hydroscopic property [3]: lower | Appearance ([3]; day 0): white powder | Content ([3]; day 0): 99.8% | Weight gain of moisture absorption ([3]; day 0): 0.57% | Appearance ([3]; day 5): white powder | Content ([3]; day 5): 99.7% | Weight gain of moisture absorption ([3]; day 5): 3.63% | Appearance ([3]; day 10): white powder | Content ([3]; day 10): 99.8% | Weight gain of moisture absorption ([3]; day 10): 3.72% | Change of appearance in high humidity test (in words) [3]: no obvious change | Change of content in high humidity test (in words) [3]: no obvious change | Stability in water by comparison to polymorph A of CN200580011916.6 [4]: better stability in water
